Drawing on patent EP4806891A1 (Kangbaida (Sichuan) Biotechnology Co., Ltd., priority 2023, dated 2025), this text covers IC50 for 18 compounds.

This assay concerns the target T1, HEK-Blue-hTLR8 cells (Homo sapiens, UniProt Q9NR97).
T1 construct: expressed in transfected cells; host or cells: HEK-Blue-hTLR8 cells (HEK293-derived reporter line)
T1 sequence (Q9NR97 27-1041): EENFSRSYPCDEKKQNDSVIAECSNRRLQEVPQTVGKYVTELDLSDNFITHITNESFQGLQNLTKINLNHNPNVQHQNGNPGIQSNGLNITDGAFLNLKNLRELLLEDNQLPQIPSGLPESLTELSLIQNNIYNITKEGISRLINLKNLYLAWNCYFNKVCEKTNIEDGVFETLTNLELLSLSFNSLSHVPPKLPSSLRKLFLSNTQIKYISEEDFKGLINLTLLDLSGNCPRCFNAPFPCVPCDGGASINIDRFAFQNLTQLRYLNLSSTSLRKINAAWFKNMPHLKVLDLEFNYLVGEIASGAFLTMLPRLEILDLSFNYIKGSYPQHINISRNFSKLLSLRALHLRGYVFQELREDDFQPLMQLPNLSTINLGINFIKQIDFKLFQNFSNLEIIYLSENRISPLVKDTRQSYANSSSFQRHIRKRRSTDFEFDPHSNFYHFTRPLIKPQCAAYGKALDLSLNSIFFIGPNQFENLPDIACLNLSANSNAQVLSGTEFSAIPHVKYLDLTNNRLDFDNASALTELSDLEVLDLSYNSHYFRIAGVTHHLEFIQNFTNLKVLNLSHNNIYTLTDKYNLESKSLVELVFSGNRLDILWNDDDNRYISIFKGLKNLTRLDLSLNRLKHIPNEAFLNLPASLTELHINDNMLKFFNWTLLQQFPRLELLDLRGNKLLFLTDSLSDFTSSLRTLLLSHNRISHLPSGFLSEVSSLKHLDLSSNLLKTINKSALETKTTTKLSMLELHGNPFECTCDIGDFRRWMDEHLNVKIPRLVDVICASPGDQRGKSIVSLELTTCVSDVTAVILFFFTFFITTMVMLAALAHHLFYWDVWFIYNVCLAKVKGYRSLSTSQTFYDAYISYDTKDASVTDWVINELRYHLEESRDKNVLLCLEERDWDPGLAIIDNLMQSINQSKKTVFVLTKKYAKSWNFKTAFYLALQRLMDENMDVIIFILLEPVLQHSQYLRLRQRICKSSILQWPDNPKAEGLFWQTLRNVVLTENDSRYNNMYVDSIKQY
Kind of assay: HEK-Blue-hTLR8 cell inhibition assay. In kind it is cell-based. As to conditions: R848 3 µM, 16 h, OD 620 nm, read-out: TLR8 IC50. How it is done:
HEK-Blue-hTLR7/8/9 cell inhibition assay
1. HEK-Blue-hTLR7/8 cells (1 × 10^4 cells/well) and HEK-Blue-hTLR9 cells (1.5 × 10^4 cells/well) were seeded in a 384-well cell culture plate, with a volume of 30 µL per well. The plate was incubated at 37°C in a 5% CO2 incubator for 4 h. 2. The compound was prepared with DMSO and diluted in DMEM medium to 10 concentrations (1:3 dilution), with final concentrations of 10000, 3333.3, 1111.1, 370.4, 123.5, 41.2, 13.7, 4.6, 1.5, and 0.5 nM; R848 was prepared with DMSO and diluted in DMEM medium, with final concentrations of 0.8 µM (HEK-Blue-hTLR7) and 3 µM (HEK-Blue-hTLR8); ODN2006 was prepared with endotoxin-free water and diluted in DMEM medium, with a final concentration of 1 µM. 3. Cells treated with DMSO were used as the blank control group, while cells treated solely with Resiquimod (R848) were used as the positive control group for HEK-Blue-hTLR7/8, and cells treated solely with ODN2006 were used as the positive control group for HEK-Blue-hTLR9. Cells treated with the test compound together with R848 or ODN2006 were used as the test group. Two parallel wells were set for each group and were placed at 37°C in a 5% CO2 incubator for incubation. 4. After being incubated for 4 h, the 384-well plate of HEK-Blue-hTLR7/8 was taken out from the incubator, and R848 alone or both R848 and the diluted compound were separately added into each well. The plate was placed at 37°C in a 5% CO2 incubator for incubation for 16 h; the 384-well plate of HEK-Blue-hTLR9 was taken out from the incubator, and ODN2006 alone or both ODN2006 and the diluted compound were added separately to each well. The plate was incubated at 37°C in a 5% CO2 incubator for 16 h. 5. After being incubated for 16 h, the 384-well plate was removed from the incubator and centrifuged at 1000 rpm for 1 minute. The optical density value of each well at 620 nm was measured using a multifunctional microplate reader. 6. The cell inhibition rate was calculated as (1-(OD620 test group-OD620 blank group)/(OD620 positive group-OD620 blank group))×100%, and the half maximal inhibitory concentration (IC50) was calculated through curve fitting. Table 1: Activity of the compounds of the present disclosure in HEK-Blue-hTLR7/8/9 cellular assays

Bounds are passed on as bounds.

For the compound `CN1CCN(c2nnc([C@]34CN(c5ccc(C#N)c6ncccc56)C[C@@]3(C(F)(F)F)C4)o2)CC1` [Compound 1, 5-((1S,5R)-1-(5-(4-methylpiperazin-1-yl)-1,3,4-oxadiazol-2-yl)-5-(trifluoromethyl)-3-azabicyclo[3.1.0]hexan-3-yl)quinoline-8-carbonitrile], the IC50 was below 100 nM. With `Cc1cc(N2CC3(c4nnc(C5CCN(C)CC5)o4)C[C@]3(C(F)(F)F)C2)c2cnn(C)c2n1` (stereo partly drawn) [Compound 2, 2-((5R)-3-(1,6-dimethyl-1H-pyrazolo[3,4-b]pyridin-4-yl)-5-(trifluoromethyl)-3-azabicyclo[3.1.0]hexan-1-yl)-5-(1-methylpiperidin-4-yl)-1,3,4-oxadiazole], the IC50 is above 1000 nM. In the case of `FC(F)(F)c1ccc(N2C[C@]3(c4nnc(C5(F)CCNCC5)o4)C[C@]3(C(F)(F)F)C2)c2cccnc12` [Compound 3, 2-(4-fluoropiperidin-4-yl)-5-((1S,5R)-5-(trifluoromethyl)-3-(8-(trifluoromethyl)quinolin-5-yl)-3-azabicyclo[3.1.0]hexan-1-yl)-1,3,4-oxadiazole], the IC50 was below 100 nM.

Regarding `CN1CC(c2nnc([C@]34CN(c5ccc(C(F)(F)F)c6ncccc56)C[C@@]3(C(F)(F)F)C4)o2)C1` [Compound 4, 2-(1-methylazetidin-3-yl)-5-((1S,5R)-5-(trifluoromethyl)-3-(8-(trifluoromethyl)quinolin-5-yl)-3-azabicyclo[3.1.0]hexan-1-yl)-1,3,4-oxadiazole], the IC50 was below 100 nM. On to `CN1CCC(c2nnc([C@]34CN(c5ccc(C#N)c6ncccc56)C[C@@]3(C(F)(F)F)C4)n2C)CC1` [Compound 5, 5-((1S,5R)-1-(4-methyl-5-(1-methylpiperidin-4-yl)-4H-1,2,4-triazol-3-yl)-5-(trifluoromethyl)-3-azabicyclo[3.1.0]hexan-3-yl)quinoline-8-carbonitrile], for which the IC50 was above 1000 nM.

`CN1CCC(Nc2nnc([C@]34CN(c5ccc(C#N)c6ncccc56)C[C@@]3(C(F)(F)F)C4)o2)CC1` [Compound 6, 5-((1S,5R)-1-(5-((1-methylpiperidin-4-yl)amino)-1,3,4-oxadiazol-2-yl)-5-(trifluoromethyl)-3-azabicyclo[3.1.0]hexan-3-yl)quinoline-8-carbonitrile]: the IC50 was below 100 nM. On to `N#Cc1ccc(N2C[C@]3(c4nnc(N)o4)C[C@]3(C(F)(F)F)C2)c2cccnc12` [Compound 7, 5-((1S,5R)-1-(5-amino-1,3,4-oxadiazol-2-yl)-5-(trifluoromethyl)-3-azabicyclo[3.1.0]hexan-3-yl)quinoline-8-carbonitrile], for which the IC50 was below 100 nM. Turning to `CN1CCC(C)(c2nnc([C@]34CN(c5ccc(C#N)c6ncccc56)C[C@@]3(C(F)(F)F)C4)o2)CC1` [Compound 8, 5-((1S,5R)-1-(5-(1,4-dimethylpiperidin-4-yl)-1,3,4-oxadiazol-2-yl)-5-(trifluoromethyl)-3-azabicyclo[3.1.0]hexan-3-yl)quinoline-8-carbonitrile], the IC50 was below 100 nM. As to `CN1CCC(c2nnc([C@]34CN(c5ccc(C#N)c6ncccc56)C[C@@]3(C(F)(F)F)C4)[nH]2)CC1` [Compound 9, 5-((1S,5R)-1-(5-(1-methylpiperidin-4-yl)-4H-1,2,4-triazol-3-yl)-5-(trifluoromethyl)-3-azabicyclo[3.1.0]hexan-3-yl)quinoline-8-carbonitrile], the IC50 was below 100 nM. For `CN1[C@@H]2CC[C@H]1C[C@H](c1nnc([C@]34CN(c5ccc(C#N)c6ncccc56)C[C@@]3(C(F)(F)F)C4)o1)C2` [Compound 11, 5-((1S,5R)-1-(5-((1R,3S,5S)-8-methyl-8-azabicyclo[3.2.1]octan-3-yl)-1,3,4-oxadiazol-2-yl)-5-(trifluoromethyl)-3-azabicyclo[3.1.0]hexan-3-yl)quinoline-8-carbonitrile] the value was below 100 nM; for `N#Cc1ccc(N2C[C@]3(c4nnc(C5CCOCC5)o4)C[C@]3(C(F)(F)F)C2)c2cccnc12` [Compound 12, 5-((1S,5R)-1-(5-(tetrahydro-2H-pyran-4-yl)-1,3,4-oxadiazol-2-yl)-5-(trifluoromethyl)-3-azabicyclo[3.1.0]hexan-3-yl)quinoline-8-carbonitrile], below 100 nM.

For the compound `CN1CC2(CCC(c3nnc([C@]45CN(c6ccc(C#N)c7ncccc67)C[C@@]4(C(F)(F)F)C5)o3)CC2)C1` [Compound 13, 5-((1S,5R)-1-(5-(2-methyl-2-azaspiro[3.5]nonan-7-yl)-1,3,4-oxadiazol-2-yl)-5-(trifluoromethyl)-3-azabicyclo[3.1.0]hexan-3-yl)quinoline-8-carbonitrile], the IC50 is below 100 nM.

With `CN1CC2CC1CC2c1nnc([C@]23CN(c4ccc(C#N)c5ncccc45)C[C@@]2(C(F)(F)F)C3)o1` (stereo partly drawn) [Compound 14, 5-((1S,5R)-1-(5-(2-methyl-2-azabicyclo[2.2.1]heptan-5-yl)-1,3,4-oxadiazol-2-yl)-5-(trifluoromethyl)-3-azabicyclo[3.1.0]hexan-3-yl)quinoline-8-carbonitrile], the IC50 was below 100 nM. The result for `CN1CCC(Oc2nnc([C@]34CN(c5ccc(C#N)c6ncccc56)C[C@@]3(C(F)(F)F)C4)o2)CC1` [Compound 15, 5-((1S,5R)-1-(5-((1-methylpiperidin-4-yl)oxy)-1,3,4-oxadiazol-2-yl)-5-(trifluoromethyl)-3-azabicyclo[3.1.0]hexan-3-yl)quinoline-8-carbonitrile] reads below 100 nM; that for `N#Cc1ccc(N2C[C@]3(c4nnc(C5CCN(CC(N)=O)CC5)o4)C[C@]3(C(F)(F)F)C2)c2cccnc12` [Compound 17, 2-(4-(5-((1S,5R)-3-(8-cyanoquinolin-5-yl)-5-(trifluoromethyl)-3-azabicyclo[3.1.0]hexan-1-yl)-1,3,4-oxadiazol-2-yl)piperidin-1-yl)acetamide], below 100 nM. As to `N#Cc1ccc(N2C[C@]3(c4nnc(C5CC6(CNC6)C5)o4)C[C@]3(C(F)(F)F)C2)c2cccnc12` [Compound 18, 5-((1S,5R)-1-(5-(2-azaspiro[3.3]heptan-6-yl)-1,3,4-oxadiazol-2-yl)-5-(trifluoromethyl)-3-azabicyclo[3.1.0]hexan-3-yl)quinoline-8-carbonitrile], the IC50 was below 100 nM.

Turning to `CN1CC2(CC(c3nnc([C@]45CN(c6ccc(C#N)c7ncccc67)C[C@@]4(C(F)(F)F)C5)o3)C2)C1` [Compound 19, 5-((1S,5R)-1-(5-(2-methyl-2-azaspiro[3.3]heptan-6-yl)-1,3,4-oxadiazol-2-yl)-5-(trifluoromethyl)-3-azabicyclo[3.1.0]hexan-3-yl)quinoline-8-carbonitrile], the IC50 was below 100 nM. Turning to `N#Cc1ccc(N2C[C@]3(c4nnc([C@H]5CC[C@H](N)CC5)o4)C[C@]3(C(F)(F)F)C2)c2cccnc12` [Compound 20, 5-((1S,5R)-1-(5-((1R,4S)-4-aminocyclohexyl)-1,3,4-oxadiazol-2-yl)-5-(trifluoromethyl)-3-azabicyclo[3.1.0]hexan-3-yl)quinoline-8-carbonitrile], the IC50 was below 100 nM.
